Data taken from ChEMBL document CHEMBL1201862, “PubChem BioAssay data set” (2004).
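Test compounds were applied to cells in 96-well plates for 48 hours at 5 doses. At the GI50, growth is halved.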 Activity calls are given as the source filed them. No stated cut-off is given here; in the data, active = GI50 up to about 1.1 µM and inactive = higher.

Columns and labels:
Assay in all cases: growth of human tumour cells (NCI), 48 h
A498 = test system: A498
A549 = test system: A549
BT-549 = test system: BT-549
CCRF-CEM = test system: CCRF-CEM
HCT-15 = test system: HCT-15
HOP-62 = test system: HOP-62
Hs-578T = test system: Hs-578T
KM12 = test system: KM12
MDA-N = test system: MDA-N
OVCAR-4 = test system: OVCAR-4
OVCAR-5 = test system: OVCAR-5
RXF 393 = test system: RXF 393
SN12C = test system: SN12C
SNB-19 = test system: SNB-19
TK-10 = test system: TK-10
U-251 = test system: U-251
UACC-62 = test system: UACC-62
SF-539 = test system: SF-539
SNB-75 = test system: SNB-75

Row | SMILES | GI50 (A498) | GI50 (A549) | GI50 (BT-549) | GI50 (CCRF-CEM) | GI50 (HCT-15) | GI50 (HOP-62) | GI50 (Hs-578T) | GI50 (KM12) | GI50 (MDA-N) | GI50 (OVCAR-4) | GI50 (OVCAR-5) | GI50 (RXF 393) | GI50 (SN12C) | GI50 (SNB-19) | GI50 (TK-10) | GI50 (U-251) | GI50 (UACC-62) | GI50 (SF-539) | GI50 (SNB-75)
1 | C1#Cc2ccccc2OCCOc2ccccc2C#Cc2ccccc2OCCOc2ccccc21 | 17.3 µM (inactive) | 25.2 µM (inactive) | 16.6 µM (inactive) | 18 µM (inactive) | > 100 µM | 8.77 µM (inactive) | 22.5 µM (inactive) | 68.2 µM (inactive) | > 100 µM (inactive) | 10.9 µM (inactive) | 24 µM (inactive) | 14.7 µM (inactive) | 30.7 µM (inactive) | 25.9 µM (inactive) | 28.8 µM (inactive) | 12.5 µM (inactive) | > 100 µM (inactive) | – | –
2 | COc1ccc(/C=N/n2c(Cc3ccccc3)n[nH]c2=O)cc1 | 32.4 µM (inactive) | > 100 µM (inactive) | 29.1 µM (inactive) | > 100 µM (inactive) | > 100 µM | 69.3 µM (inactive) | 32.3 µM (inactive) | > 100 µM (inactive) | > 100 µM (inactive) | > 100 µM (inactive) | > 100 µM (inactive) | – | > 100 µM (inactive) | 70.6 µM (inactive) | – | 37 µM (inactive) | > 100 µM (inactive) | > 100 µM (inactive) | > 100 µM (inactive)
3 | C=C(C)c1nc(C#N)c(N)o1 | – | > 100 µM (inactive) | > 100 µM (inactive) | > 100 µM (inactive) | > 100 µM | > 100 µM (inactive) | > 100 µM (inactive) | > 100 µM (inactive) | > 100 µM (inactive) | > 100 µM (inactive) | > 100 µM (inactive) | > 100 µM (inactive) | > 100 µM (inactive) | > 100 µM (inactive) | > 100 µM (inactive) | > 100 µM (inactive) | – | > 100 µM (inactive) | –
4 | Cc1ccc(S(=O)(=O)Oc2nc3ccccc3nc2N(S(=O)(=O)c2ccc(C)cc2)S(=O)(=O)c2ccc(C)cc2)cc1 | 89.9 µM (inactive) | 85.1 µM (inactive) | 90.6 µM (inactive) | 50.1 µM (inactive) | 31 µM | – | 63.1 µM (inactive) | 33.7 µM (inactive) | 45 µM (inactive) | – | 33 µM (inactive) | 76.4 µM (inactive) | 44 µM (inactive) | 66.8 µM (inactive) | 39.8 µM (inactive) | 39.9 µM (inactive) | 56.5 µM (inactive) | 29 µM (inactive) | 37.2 µM (inactive)
5 | O=C(c1ccc(Cl)cc1)N(C(=O)N1CCC(c2ccccc2)CC1)c1ccccc1 | 20.4 µM (inactive) | – | 19.5 µM (inactive) | 18.9 µM (inactive) | 15 µM | – | 24.2 µM (inactive) | 11.4 µM (inactive) | 39.3 µM (inactive) | – | 0.558 µM (active) | 11.9 µM (inactive) | 99.5 µM (inactive) | 72.1 µM (inactive) | 30.7 µM (inactive) | 39.5 µM (inactive) | 31.8 µM (inactive) | 65 µM (inactive) | 1.83 µM (inactive)
6 | O=[N+]([O-])/C(C(Cl)=C(Cl)Cl)=C(/Nc1ccccc1)Sc1ccccc1 | 20.8 µM (inactive) | 23.4 µM (inactive) | 25.5 µM (inactive) | 16.8 µM (inactive) | 19.8 µM | 19.5 µM (inactive) | 40.4 µM (inactive) | 18.2 µM (inactive) | 24.9 µM (inactive) | 19.7 µM (inactive) | – | 19.8 µM (inactive) | 26.9 µM (inactive) | 17.5 µM (inactive) | 27.7 µM (inactive) | 14.6 µM (inactive) | 19.9 µM (inactive) | 24.9 µM (inactive) | –
7 | CC(C(=O)NCNC(=O)c1ccccc1)C(=O)NCc1ccccc1 (centres undefined) | – | > 100 µM (inactive) | > 100 µM (inactive) | > 100 µM (inactive) | > 100 µM | – | > 100 µM (inactive) | > 100 µM (inactive) | > 100 µM (inactive) | – | > 100 µM (inactive) | > 100 µM (inactive) | > 100 µM (inactive) | > 100 µM (inactive) | > 100 µM (inactive) | > 100 µM (inactive) | > 100 µM (inactive) | > 100 µM (inactive) | > 100 µM (inactive)
8 | O=C1Nc2nccnc2C(=O)N2CCC[C@@H]12 | – | > 100 µM (inactive) | > 100 µM (inactive) | > 100 µM (inactive) | > 100 µM | > 100 µM (inactive) | > 100 µM (inactive) | > 100 µM (inactive) | > 100 µM (inactive) | > 100 µM (inactive) | > 100 µM (inactive) | > 100 µM (inactive) | > 100 µM (inactive) | > 100 µM (inactive) | > 100 µM (inactive) | > 100 µM (inactive) | > 100 µM (inactive) | > 100 µM (inactive) | > 100 µM (inactive)
9 | CSC1=NN(c2ccccc2)C(=O)C1=C(SC)SC | 13.3 µM (inactive) | 20 µM (inactive) | 27.4 µM (inactive) | 14.2 µM (inactive) | 20.1 µM | – | 18.1 µM (inactive) | 31.6 µM (inactive) | 30.7 µM (inactive) | 19.4 µM (inactive) | 31.6 µM (inactive) | 13.9 µM (inactive) | 28.4 µM (inactive) | 23.2 µM (inactive) | 19.5 µM (inactive) | 22.2 µM (inactive) | 21.2 µM (inactive) | 21.7 µM (inactive) | 27.4 µM (inactive)
10 | Cc1ccccc1Nc1cn(COCc2ccccc2)c(=O)[nH]c1=O | > 100 µM (inactive) | 81.3 µM (inactive) | 14.5 µM (inactive) | 91.6 µM (inactive) | > 100 µM | > 100 µM (inactive) | 54.3 µM (inactive) | 57.5 µM (inactive) | > 100 µM (inactive) | 39.5 µM (inactive) | > 100 µM (inactive) | > 100 µM (inactive) | > 100 µM (inactive) | > 100 µM (inactive) | – | > 100 µM (inactive) | 75.2 µM (inactive) | – | –
11 | CCOC(=O)C(SCCO)C(C(=O)OCC)n1cnc2c(=O)[nH]c(NC(C)=O)nc21 (centres undefined) | > 100 µM (inactive) | > 100 µM (inactive) | > 100 µM (inactive) | > 100 µM (inactive) | > 100 µM | > 100 µM (inactive) | > 100 µM (inactive) | > 100 µM (inactive) | > 100 µM (inactive) | > 100 µM (inactive) | > 100 µM (inactive) | – | > 100 µM (inactive) | > 100 µM (inactive) | > 100 µM (inactive) | > 100 µM (inactive) | > 100 µM (inactive) | > 100 µM (inactive) | > 100 µM (inactive)
12 | Nc1ccc2nc3c(nc2c1)C(=O)c1ccccc1-3 | – | > 100 µM (inactive) | > 100 µM (inactive) | 84.3 µM (inactive) | > 100 µM | > 100 µM (inactive) | > 100 µM (inactive) | > 100 µM (inactive) | > 100 µM (inactive) | > 100 µM (inactive) | > 100 µM (inactive) | > 100 µM (inactive) | > 100 µM (inactive) | > 100 µM (inactive) | > 100 µM (inactive) | > 100 µM (inactive) | > 100 µM (inactive) | > 100 µM (inactive) | > 100 µM (inactive)
